Assay results: paper PMC8683641 (Journal of medicinal chemistry, 2021)

Experiments:
[1] = molecular target: hCB2 Cannabinoid Receptors (Homo sapiens, UniProt P34972); assay: [35S]GTPγS binding assay for efficacy, CHO-hCB2 membranes; format: biochemical; conditions: from [35S]GTPγS binding
hCB1 = hCB1 (Homo sapiens, UniProt P21554); format: binding; conditions: propyl tail versus pentyl
hCB2 [2] = format: binding, human; conditions: Ki hCB1 / Ki hCB2
hCB2 [3] = conditions: literature values; cited from earlier work

hCB2 Cannabinoid Receptors, sequence (P34972 whole entry): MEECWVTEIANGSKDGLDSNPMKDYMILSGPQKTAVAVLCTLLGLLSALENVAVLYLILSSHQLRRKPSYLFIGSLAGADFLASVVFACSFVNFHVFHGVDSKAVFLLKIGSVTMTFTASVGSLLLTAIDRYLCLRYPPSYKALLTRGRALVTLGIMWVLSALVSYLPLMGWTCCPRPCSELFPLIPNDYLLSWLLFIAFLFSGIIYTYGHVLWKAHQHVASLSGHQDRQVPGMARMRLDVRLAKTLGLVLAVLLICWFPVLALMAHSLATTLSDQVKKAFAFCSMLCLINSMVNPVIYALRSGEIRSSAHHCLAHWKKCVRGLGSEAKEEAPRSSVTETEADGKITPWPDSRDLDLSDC
hCB1, sequence (P21554 whole entry): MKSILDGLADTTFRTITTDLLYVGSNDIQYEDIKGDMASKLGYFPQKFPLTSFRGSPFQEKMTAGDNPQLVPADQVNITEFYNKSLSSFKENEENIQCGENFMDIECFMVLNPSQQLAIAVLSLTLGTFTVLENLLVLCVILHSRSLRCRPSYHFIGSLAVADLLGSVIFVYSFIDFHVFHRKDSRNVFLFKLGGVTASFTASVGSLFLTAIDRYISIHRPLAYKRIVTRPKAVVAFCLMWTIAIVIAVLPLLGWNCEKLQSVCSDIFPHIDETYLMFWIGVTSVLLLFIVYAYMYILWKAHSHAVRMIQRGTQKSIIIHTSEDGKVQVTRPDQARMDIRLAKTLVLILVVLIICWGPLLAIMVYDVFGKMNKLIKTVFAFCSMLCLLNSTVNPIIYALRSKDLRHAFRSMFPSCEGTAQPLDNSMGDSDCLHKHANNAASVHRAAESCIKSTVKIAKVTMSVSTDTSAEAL

## CCCCCn1cc(C(=O)c2cccc3c2CC(C)(C)C3)c2ccccc21 [GBD-002, (2,2-dimethyl-2,3-dihydro-1H-inden-4-yl) (1-pentyl-1H-indol-3-yl)methanone]
[1]
  functional characterization at hCB2: full agonist

## CCCCCn1cc(C(=O)c2ccc3c(c2)CC(C)(C)C3)c2ccccc21 [GBD-003, (2,2-Dimethyl-2,3-dihydro-1H-inden-5-yl) (1-pentyl-1H-indol-3-yl)methanone]
[1]
  functional characterization at hCB2: CB2R antagonist

## CCCn1cc(C(=O)c2ccc3c(c2)CC(C)(C)C3)c2ccccc21 [GBD-005, (2,2-dimethyl-2,3-dihydro-1H-inden-5-yl) (1-propyl-1H-indol-3-yl)methanone]
hCB1
  reduction in CB1R affinity: > 60 fold
[1]
  functional characterization at hCB2: neutral antagonists

## C=CCCCn1cc(C(=O)c2ccc3c(c2)CC(C)(C)C3)c2ccccc21 [GBD-013, (2,2-Dimethyl-2,3-dihydro-1H-inden-5-yl) (1-(pent-4-en-1-yl)-1H-indol-3-yl)methanone]
hCB2 [2]
  selectivity index (SI) for CB2: 10

## C#CCCCn1cc(C(=O)c2ccc3c(c2)CC(C)(C)C3)c2ccccc21 [GBD-014, (2,2-Dimethyl-2,3-dihydro-1H-inden-5-yl) (1-(pent-4-yn-1-yl)-1H-indol-3-yl)methanone]
[1]; listed as 35
  functional characterization at hCB2: neutral antagonists

## C#CCCCn1c(C)c(C(=O)c2ccc3c(c2)CC(C)(C)C3)c2ccccc21 [GBD-029, (2,2-Dimethyl-2,3-dihydro-1H-inden-5-yl) (2-methyl-1-(pent-4-yn-1-yl)-1H-indol-3-yl)methanone]
[1]; listed as 49
  functional characterization at hCB2: agonist

## CCCn1c(C)c(C(=O)c2cccc3ccccc23)c2ccccc21 [JWH-015]
hCB2 [3]
  SI (CB2 selectivity): 24

## CCCn1cc(C(=O)c2cccc3ccccc23)c2ccccc21 [JWH-072]
hCB2 [3]
  SI (CB2 selectivity): 6
